In brackets after ≈: the same amount, converted by molar mass. Activity calls are given as the source filed them. The rule behind the calls is not given here.
Experiments:
[1] = Fraction unbound in Han Wistar rat plasma; assay type: ADME, cell-free
[2] = Lipophilicity, log D of the compound; conditions: octanol/water
Hepatocyte [3] = assay: Intrinsic clearance in human hepatocytes assessed per 10^-6 cells
Hepatocyte [4] = assay: Intrinsic clearance in Han Wistar rat hepatocytes assessed per 10^-6 cells
[5] = Blood clearance in iv dosed Han Wistar rat
[6] = Oral bioavailability in Han Wistar rat; assay type: ADME, organism-based; conditions: in vivo
[7] = biological target: RAC-alpha serine/threonine-protein kinase (Homo sapiens, UniProt P31749); assay: Inhibition of AKT1
RAC-alpha serine/threonine-protein kinase, sequence (P31749 whole entry): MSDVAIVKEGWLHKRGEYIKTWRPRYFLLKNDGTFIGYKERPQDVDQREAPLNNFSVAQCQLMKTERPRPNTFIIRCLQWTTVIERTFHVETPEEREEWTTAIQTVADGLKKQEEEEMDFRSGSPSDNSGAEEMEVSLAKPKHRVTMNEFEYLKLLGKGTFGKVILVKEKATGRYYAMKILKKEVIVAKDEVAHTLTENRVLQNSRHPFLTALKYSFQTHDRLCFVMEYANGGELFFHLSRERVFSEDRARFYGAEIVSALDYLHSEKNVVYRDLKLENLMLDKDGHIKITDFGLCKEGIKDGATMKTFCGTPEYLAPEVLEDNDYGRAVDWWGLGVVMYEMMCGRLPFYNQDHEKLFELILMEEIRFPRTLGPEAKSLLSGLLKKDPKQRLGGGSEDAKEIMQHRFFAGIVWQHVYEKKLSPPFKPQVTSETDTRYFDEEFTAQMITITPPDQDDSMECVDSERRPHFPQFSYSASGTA

[8] = Inhibition of AKT phosphorylation at Ser473 in human MDA-MB-468 cells; assay type: cell-based
[9] = Aqueous solubility at pH 7.4
[10] = Inhibition of AKT phosphorylation at Thr308 in human BT474 cells; assay type: cell-based; conditions: BT-474
[11] = Volume of distribution at steady state in Han Wistar rat; assay type: ADME, organism-based; conditions: in vivo, read-out: Vdss
Mus musculus [12] = assay: Inhibition of AKT-mediated GSK3beta phosphorylation in human BT474c cells xenografted in nude mouse at 200 mg/kg, po after 24 hrs; assay type: functional, organism-based; set-up: dose 200 mg/kg
BT474c [13] = assay: Inhibition of AKT phosphorylation at Ser473 in human BT474c cells at 0.01 uM to 10 uM after 24 hrs; assay type: cell-based
BT474c [14] = assay: Inhibition of AKT-mediated PRAS40 phosphorylation at T246 in human BT474c cells at 0.01 uM to 10 uM after 24 hrs; assay type: cell-based
Mus musculus [15] = assay: Inhibition of AKT-mediated GSK3beta phosphorylation in human BT474c cells xenografted in nude mouse at 200 mg/kg, po after 4 hrs; assay type: functional, organism-based; set-up: dose 200 mg/kg
Mus musculus [16] = assay: Inhibition of AKT-mediated GSK3beta phosphorylation in human BT474c cells xenografted in nude mouse at 100 mg/kg, po after 4 hrs; assay type: functional, organism-based; set-up: dose 100 mg/kg
Mus musculus [17] = assay: Inhibition of AKT phosphorylation at S473 in human BT474c cells xenografted in nude mouse at 200 mg/kg, po after 24 hrs; assay type: functional, organism-based; set-up: dose 200 mg/kg
BT474c [18] = assay: Antitumor activity against human BT474c cells xenografted in nude mouse assessed as tumor growth inhibition at 200 mg/kg, po qd for 21 days; assay type: functional, organism-based; set-up: dose 200 mg/kg
BT474c [19] = assay: Inhibition of AKT phosphorylation at Thr308 in human BT474c cells at 0.01 uM to 10 uM after 24 hrs; assay type: cell-based
BT474c [20] = assay: Antitumor activity against human BT474c cells xenografted in po dosed nude mouse assessed as tumor growth inhibition administered qd for 21 days; assay type: functional, organism-based
BT474c [21] = assay: Inhibition of AKT-mediated ribosomal S6 protein phosphorylation at S235/236 in human BT474c cells at 0.01 uM to 10 uM after 24 hrs; assay type: cell-based
Mus musculus [22] = assay: Inhibition of AKT phosphorylation at S473 in human BT474c cells xenografted in nude mouse at 100 mg/kg, po after 4 hrs; assay type: functional, organism-based; set-up: dose 100 mg/kg
Mus musculus [23] = assay: Inhibition of AKT phosphorylation at S473 in human BT474c cells xenografted in nude mouse at 200 mg/kg, po after 4 hrs; assay type: functional, organism-based; set-up: dose 200 mg/kg
Mus musculus [24] = assay: Inhibition of AKT phosphorylation at S473 in human BT474c cells xenografted in nude mouse at 100 mg/kg, po after 24 hrs; assay type: functional, organism-based; set-up: dose 100 mg/kg
Mus musculus [25] = assay: Inhibition of AKT-mediated GSK3beta phosphorylation in human BT474c cells xenografted in nude mouse at 100 mg/kg, po after 24 hrs; assay type: functional, organism-based; set-up: dose 100 mg/kg

| SMILES | logD [2] | IC50 [7] [nM] | IC50 [8] [nM] | solubility [9] [µM] | IC50 [10] [nM] | also measured |
| --- | --- | --- | --- | --- | --- | --- |
| Cn1cnc2c(-c3ccc(C4(N)CCC4)cc3)c(-c3ccccc3)ccc21 | – | 2800 | 359 | – | 343 | – |
| NC1(c2ccc(-c3nn4cccc4cc3-c3ccccc3)cc2)CCC1 | 3.3 | 926 | 1230 | 27 (≈ 9.16 µg/mL) | 2430 | – |
| NC1(c2ccc(-c3ncc4cnccc4c3-c3ccccc3)cc2)CCC1 | 2.2 | 117 | 37 | 2200 (≈ 773 µg/mL) | 48 | fraction unbound [1]: 0.13; CLH (Hepatocyte [3]): 300 µL/min; clearance ([5]; whole blood): 40 mL/min/kg; Vd [11]: 0.3 L/kg |
| NC1(c2ccc(-n3c(-c4ccccc4)nc4ccccc4c3=O)cc2)CCC1 | 1.6 | 41700 | 7730 | 1400 (≈ 514 µg/mL) | 5900 | – |
| NC1(c2ccc(-c3ncc4ccccc4c3-c3ccccc3)cc2)CCC1 | – | 301 | 179 | – | 535 | – |
| NC1(c2ccc(-c3nn4ccccc4c3-c3ccccc3)cc2)CCC1 | – | 199 | 151 | – | 205 | clearance ([5]; whole blood): 171 mL/min/kg; bioavailability [6]: 0%; Vd [11]: 8 L/kg |
| NC1(c2ccc(-c3c(-c4ccccc4)ccn4ccnc34)cc2)CCC1 | – | 1810 | 388 | – | 324 | – |
| NC(=O)c1cnc(-c2ccc(C3(N)CCC3)cc2)c(-c2ccccc2)c1 | – | 1040 | 322 | – | 422 | fraction unbound [1]: 0.419; inhibition (Mus musculus [12]): Active; inhibition (BT474c [13]): Active; inhibition (BT474c [14]): Active; CLH (Hepatocyte [3]): 3 µL/min; CLH (Hepatocyte [4]): 4 µL/min; inhibition (Mus musculus [15]): Active; inhibition (Mus musculus [16]): Active; inhibition (Mus musculus [17]): Active; growth inhibition (GI) (BT474c [18]): Active; inhibition (BT474c [19]): Active; growth inhibition (GI) (BT474c [20]): Dose-dependent effect; clearance ([5]; whole blood): 21 mL/min/kg; inhibition (BT474c [21]): Active; bioavailability [6]: 48%; inhibition (Mus musculus [22]): Active; inhibition (Mus musculus [23]): Active; inhibition (Mus musculus [24]): Active; inhibition (Mus musculus [25]): Active; Vd [11]: 11.1 L/kg |
| NC1(c2ccc(-c3c(-c4ccccc4)ncc4nccn34)cc2)CCC1 | 1.7 | 5400 | 2480 | 2500 (≈ 851 µg/mL) | 2180 | – |
| NC(=O)c1ccn2c(-c3ccccc3)c(-c3ccc(C4(N)CCC4)cc3)nc2c1 | 2 | 348 | 92 | 110 (≈ 42.1 µg/mL) | 82 | – |
| NC1(c2ccc(-c3nc4ccccc4c(=O)n3-c3ccccc3)cc2)CCC1 | 1.5 | 7020 | 2080 | 2300 (≈ 845 µg/mL) | 2620 | – |

Continued, in another order:

| logD [2] | IC50 [7] [nM] | IC50 [8] [nM] | solubility [9] [µM] | IC50 [10] [nM] | SMILES | also measured |
| --- | --- | --- | --- | --- | --- | --- |
| 2.8 | 387 | 124 | 1900 (≈ 645 µg/mL) | 182 | NC1(c2ccc(-c3nc4ccccn4c3-c3ccccc3)cc2)CCC1 | fraction unbound [1]: 0.068; CLH (Hepatocyte [3]): 18 µL/min; CLH (Hepatocyte [4]): 291 µL/min; clearance ([5]; whole blood): 41 mL/min/kg; bioavailability [6]: 36%; Vd [11]: 10.3 L/kg |
| – | 2140 | 293 | – | 369 | NC1(c2ccc(-c3c(-c4ccccc4)ccc4ncnn34)cc2)CCC1 | – |
| 2.5 | 787 | 483 | 1500 (≈ 509 µg/mL) | 604 | NC1(c2ccc(-c3ncc4cccn4c3-c3ccccc3)cc2)CCC1 | – |
| 3.6 | 243 | 250 | 290 (≈ 102 µg/mL) | 557 | NC1(c2ccc(-c3nc4ccccc4cc3-c3ccccc3)cc2)CCC1 | fraction unbound [1]: 0.011; CLH (Hepatocyte [4]): 148 µL/min; clearance ([5]; in vivo): 26 mL/min/kg; bioavailability [6]: 0%; Vd [11]: 3.1 L/kg |
| 1.3 | 1260 | 365 | 2500 (≈ 851 µg/mL) | 386 | NC1(c2ccc(-c3ncc4nccn4c3-c3ccccc3)cc2)CCC1 | fraction unbound [1]: 0.371; CLH (Hepatocyte [3]): 3 µL/min; CLH (Hepatocyte [4]): 16 µL/min; clearance ([5]; whole blood): 62 mL/min/kg; bioavailability [6]: 30%; Vd [11]: 10.3 L/kg |
| 2.2 | 193 | 98 | 1400 (≈ 492 µg/mL) | 54 | NC1(c2ccc(-c3ncc4ccncc4c3-c3ccccc3)cc2)CCC1 | fraction unbound [1]: 0.105 |
| 1.7 | 465 | 104 | 2000 (≈ 703 µg/mL) | 167 | NC1(c2ccc(-c3ncc4cccnc4c3-c3ccccc3)cc2)CCC1 | – |
| – | 528 | 216 | – | 391 | NC1(c2ccc(-c3nn4ccnc4cc3-c3ccccc3)cc2)CCC1 | fraction unbound [1]: 0.123; CLH (Hepatocyte [3]): 8 µL/min; CLH (Hepatocyte [4]): 274 µL/min; clearance ([5]; in vivo): 57 mL/min/kg; bioavailability [6]: 0%; Vd [11]: 2.3 L/kg |
| 0.2 | 8660 | 2170 | 1900 (≈ 700 µg/mL) | 1620 | NC1(c2ccc(-c3nn4ccc(=O)nc4cc3-c3ccccc3)cc2)CCC1 | – |
| 2 | 8980 | 1540 | – | 1200 | CCn1cnc2cnc(-c3ccc(C4(N)CCC4)cc3)c(-c3ccccc3)c21 | – |
| – | 2720 | 824 | – | 1190 | NC1(c2ccc(-c3c(-c4ccccc4)ccc4ccnn34)cc2)CCC1 | – |
| – | 188 | 47 | – | 89 | NC1(c2ccc(-c3ncc4ncccc4c3-c3ccccc3)cc2)CCC1 | – |
| 1.7 | 2670 | 661 | 1000 (≈ 340 µg/mL) | 479 | NC1(c2ccc(-c3c(-c4ccccc4)ccn4ncnc34)cc2)CCC1 | – |
